Assay results as given in the CheMixHub drug solubility set.

Assay: xn = mol fraction of the nth substance listed, in the solute-free solvent

CN1CCN(C2=Nc3cc(Cl)ccc3Nc3ccccc32)CC1 + ClCCCl + Cc1ccccc1
solubility (g/100 g solution)
Settings | x2 = 0.09454 | x2 = 0.1907 | x2 = 0.2875 | x2 = 0.3851 | x2 = 0.4844 | x2 = 0.5848 | x2 = 0.6866 | x2 = 0.79 | x2 = 0.8945
293.15 K | 2.42 | 2.81 | 3.04 | 3.48 | 3.87 | 4.26 | 4.74 | 5.15 | 5.47
298.15 K | 2.8 | 3.04 | 3.49 | 3.86 | 4.38 | 4.96 | 5.44 | 5.92 | 6.3
303.15 K | 3.12 | 3.63 | 3.88 | 4.47 | 5.03 | 5.87 | 6.44 | 6.95 | 7.31
308.15 K | 3.94 | 4.47 | 4.94 | 5.58 | 6.12 | 6.82 | 7.42 | 8.2 | 8.68
313.15 K | 4.7 | 5.37 | 5.95 | 6.67 | 7.33 | 8.06 | 8.85 | 9.38 | 9.62
318.15 K | 5.75 | 6.09 | 6.93 | 7.46 | 8.32 | 9.3 | 9.75 | 10.8 | 11.5
323.15 K | 7.24 | 7.72 | 8.87 | 9.82 | 10.7 | 11.6 | 12.3 | 13.2 | 13.6

Cc1c(Br)cccc1C(=O)O + C1CCOC1 + CCOC(C)=O
solubility (g/100 g solution)
Settings | x2 = 0.161 | x2 = 0.318 | x2 = 0.471 | x2 = 0.62 | x2 = 0.765 | x2 = 0.907
278.15 K | 11.6 | 16.7 | 21.6 | 26.2 | 30 | 35
283.15 K | 12.9 | 18.1 | 23.4 | 28.1 | 32 | 37.2
288.15 K | 14.2 | 19.7 | 24.9 | 29.9 | 33.8 | 39.1
293.15 K | 15.4 | 21.3 | 26.6 | 31.7 | 35.6 | 41.2
298.15 K | 16.9 | 22.7 | 28.2 | 33.4 | 37.3 | 43
303.15 K | 18.3 | 24.4 | 30 | 35.3 | 39 | 44.9
308.15 K | 19.8 | 26 | 31.6 | 36.9 | 40.6 | 46.5
313.15 K | 21.6 | 27.6 | 33.3 | 38.6 | 42.1 | 48.1
318.15 K | 23.4 | 29.4 | 35.1 | 40.2 | 43.6 | 49.6
323.15 K | 25.3 | 31.3 | 36.7 | 41.8 | 44.9 | 51.1
328.15 K | 27.6 | 33.3 | 38.5 | 43.6 | 46.2 | 52.5

Nc1[nH]c(=O)ncc1F + CS(C)=O + CC(C)O
solubility (g/100 g solution)
Settings | 283.15 K | 288.15 K | 293.15 K | 298.15 K | 303.15 K | 308.15 K | 313.15 K | 318.15 K | 323.15 K
x2 = 0.0788 | 0.0921 | 0.111 | 0.133 | 0.162 | 0.192 | 0.228 | 0.268 | 0.315 | 0.37
x2 = 0.1614 | 0.168 | 0.202 | 0.237 | 0.282 | 0.331 | 0.386 | 0.451 | 0.526 | 0.615
x2 = 0.2481 | 0.248 | 0.291 | 0.341 | 0.401 | 0.466 | 0.543 | 0.625 | 0.717 | 0.826
x2 = 0.3392 | 0.336 | 0.388 | 0.451 | 0.521 | 0.606 | 0.693 | 0.798 | 0.914 | 1.05
x2 = 0.435 | 0.424 | 0.487 | 0.569 | 0.648 | 0.743 | 0.852 | 0.967 | 1.1 | 1.25
x2 = 0.5359 | 0.503 | 0.57 | 0.645 | 0.734 | 0.837 | 0.957 | 1.09 | 1.24 | 1.41
x2 = 0.6424 | 0.591 | 0.662 | 0.745 | 0.833 | 0.948 | 1.08 | 1.21 | 1.38 | 1.55
x2 = 0.7549 | 0.704 | 0.789 | 0.876 | 0.987 | 1.11 | 1.25 | 1.41 | 1.59 | 1.77
x2 = 0.8739 | 0.823 | 0.901 | 1 | 1.11 | 1.24 | 1.4 | 1.57 | 1.75 | 1.95

Cl.N=C(N)N + CN(C)C=O + CCCO
solubility (g/100 g solution)
Settings | 278.15 K | 283.15 K | 288.15 K | 293.15 K | 298.15 K | 303.15 K | 308.15 K | 313.15 K | 318.15 K | 323.15 K
x2 = 0.08378 | 10.4 | 11.5 | 12.6 | 13.4 | 14.4 | 15.6 | 16.5 | 17.8 | 18.9 | 20.5
x2 = 0.2607 | 20.4 | 21.6 | 22.3 | 23 | 23.9 | 24.8 | 25.6 | 26.3 | 27.2 | 28.1
x2 = 0.4515 | 27.6 | 28.9 | 29.7 | 30.7 | 31.8 | 32.8 | 33.4 | 34.5 | 35.3 | 36.7
x2 = 0.657 | 35.6 | 37.3 | 38.3 | 39.1 | 40.5 | 41.6 | 42.5 | 43.5 | 44.9 | 46.1
x2 = 0.8809 | 43.5 | 45.6 | 46.6 | 47.1 | 48.8 | 49.9 | 50.7 | 52.4 | 53.7 | 54

Nc1nccnc1Cl + CC(C)O + O
solubility (g/100 g solution)
Settings | 278.15 K | 283.15 K | 288.15 K | 293.15 K | 298.15 K | 303.15 K | 308.15 K | 313.15 K | 318.15 K | 323.15 K
x2 = 0.03225 | 0.0425 | 0.0564 | 0.0738 | 0.092 | 0.112 | 0.133 | 0.154 | 0.178 | 0.201 | 0.227
x2 = 0.06974 | 0.0786 | 0.103 | 0.134 | 0.166 | 0.201 | 0.237 | 0.275 | 0.316 | 0.356 | 0.402
x2 = 0.1139 | 0.129 | 0.168 | 0.215 | 0.266 | 0.321 | 0.38 | 0.439 | 0.503 | 0.567 | 0.64
x2 = 0.1666 | 0.19 | 0.245 | 0.313 | 0.387 | 0.466 | 0.551 | 0.638 | 0.729 | 0.824 | 0.93
x2 = 0.2307 | 0.242 | 0.315 | 0.4 | 0.503 | 0.609 | 0.724 | 0.84 | 0.962 | 1.09 | 1.24
x2 = 0.3103 | 0.31 | 0.394 | 0.503 | 0.621 | 0.753 | 0.893 | 1.05 | 1.2 | 1.38 | 1.57
x2 = 0.4117 | 0.355 | 0.459 | 0.585 | 0.73 | 0.887 | 1.06 | 1.23 | 1.42 | 1.61 | 1.85
x2 = 0.5454 | 0.393 | 0.507 | 0.645 | 0.808 | 0.982 | 1.18 | 1.38 | 1.58 | 1.83 | 2.1
x2 = 0.7297 | 0.411 | 0.529 | 0.672 | 0.836 | 1.02 | 1.23 | 1.45 | 1.67 | 1.93 | 2.26

O=C(O)CC(O)C(=O)O (stereo not given) + C1CCOC1 + CCOC(C)=O
solubility (g/100 g solution)
Settings | 278.15 K | 283.15 K | 288.15 K | 293.15 K | 298.15 K | 303.15 K | 308.15 K | 313.15 K | 318.15 K | 323.15 K
x2 = 0.234 | 9.32 | 10.1 | 11 | 12 | 13.2 | 14.4 | 15.8 | 17.2 | 18.6 | 20.4
x2 = 0.3437 | 13.6 | 14.7 | 15.9 | 17.2 | 18.7 | 20.4 | 22.1 | 24 | 26.1 | 28.7
x2 = 0.4489 | 19.3 | 20.5 | 21.8 | 23.2 | 24.7 | 26.3 | 27.9 | 29.9 | 31.9 | 34.2
x2 = 0.55 | 24.6 | 26 | 27.6 | 29 | 30.8 | 32.7 | 34.6 | 36.6 | 39.2 | 41.8
x2 = 0.647 | 27.6 | 28.9 | 30.5 | 32.2 | 34.2 | 36.3 | 38.4 | 40.8 | 43.5 | 46.4
x2 = 0.7403 | 30.1 | 31.8 | 33.3 | 34.9 | 36.9 | 38.8 | 40.9 | 43.3 | 46 | 48.7
x2 = 0.8302 | 34.8 | 36 | 37.7 | 39 | 40.7 | 42.6 | 44.4 | 46.4 | 48.7 | 51.4

Cc1[nH]c(=O)c(C#N)cc1-c1ccncc1 + CN(C)C=O + O
solubility (g/100 g solution)
Settings | 278.15 K | 283.15 K | 288.15 K | 293.15 K | 298.15 K | 303.15 K | 308.15 K | 313.15 K | 318.15 K | 323.15 K
x2 = 0.02666 | 0.00219 | 0.00258 | 0.00301 | 0.00349 | 0.00402 | 0.00455 | 0.00511 | 0.00573 | 0.0064 | 0.00714
x2 = 0.05806 | 0.00523 | 0.00608 | 0.00705 | 0.00812 | 0.00928 | 0.0104 | 0.0117 | 0.013 | 0.0144 | 0.016
x2 = 0.09556 | 0.00909 | 0.0105 | 0.0121 | 0.014 | 0.0159 | 0.0179 | 0.02 | 0.0222 | 0.0245 | 0.0271
x2 = 0.1412 | 0.0128 | 0.0148 | 0.0171 | 0.0197 | 0.0224 | 0.0253 | 0.0283 | 0.0314 | 0.0347 | 0.0384
x2 = 0.1978 | 0.0159 | 0.0184 | 0.0208 | 0.0242 | 0.028 | 0.0318 | 0.0357 | 0.0397 | 0.0439 | 0.0488
x2 = 0.27 | 0.0186 | 0.0214 | 0.0246 | 0.029 | 0.0328 | 0.0371 | 0.0419 | 0.047 | 0.0524 | 0.0585
x2 = 0.3652 | 0.0209 | 0.0244 | 0.028 | 0.0328 | 0.0376 | 0.043 | 0.0487 | 0.0547 | 0.0613 | 0.068
x2 = 0.4965 | 0.023 | 0.0268 | 0.0315 | 0.0364 | 0.0416 | 0.0476 | 0.0545 | 0.0615 | 0.0685 | 0.0771
x2 = 0.6893 | 0.0242 | 0.0285 | 0.033 | 0.0391 | 0.0448 | 0.0505 | 0.0577 | 0.0654 | 0.0732 | 0.0835
